The text below walks through data of PubChem BioAssay AID1259411 (Chemical Carcinogenesis Research Information System (CCRIS), 2018).

This data set concerns rodent carcinogenicity bioassays, tumor incidence. Nature of the data set: CCRIS carcinogenicity studies. The source says: The CCRIS database contains chemical records with carcinogenicity, mutagenicity, tumor promotion, and tumor inhibition test results. It was developed by the National Cancer Institute (NCI). Data are derived from studies cited in primary journals, current awareness tools, NCI reports, and other sources. Test results have been reviewed by experts in carcinogenesis and mutagenesis.
CCRIS provides historical information from the years 1985 - 2011. It is no longer updated.
This is an archive assay for CCRIS carcinogenicity studies.

Each structure is given as a SMILES string. The source made the active and inactive calls. No rule for the calls is given here.

With `CC(=O)N(O)c1ccc2c(c1)Cc1ccccc1-2`, the carcinogen call by setting is: (Species: GUINEA PIG, Strain/Sex: FEMALE, Route: INTRAPERITONEAL, Dose: 1.5 G/100 G SUSPENDED IN SALINE-GUM ACACIA 3/WK FOR 27 MO, Tumor Site: Type of Lesion: INJECTION SITE: SARCOMA) “active; positive”; (Species: GUINEA PIG, Strain/Sex: MALE, Route: ORAL, Dose: 0.024-0.064% IN DIET (AMOUNT VARIED BECAUSE OF TOXICITY), Tumor Site: Type of Lesion: INTESTINES (SMALL): ADENOCARCINOMA) “active; positive”; (Species: HAMSTER, Strain/Sex: MALE, Route: INTRAPERITONEAL, Dose: 1.5 G/100 G SUSPENDED IN SALINE-GUM ACACIA 3/WK FOR 6-8 MO, Tumor Site: Type of Lesion: PERITONEAL CAVITY: FIBROSARCOMA) “active; positive”; (Species: HAMSTER, Strain/Sex: MALE, Route: ORAL, Dose: 0.032% IN DIET AS 5-10 G OF GLUCOSE TRITURATE/KG DIET FOR 7.5 MO, Tumor Site: Type of Lesion: FORESTOMACH: PAPILLOMA, SQUAMOUS CELL CARCINOMA, LIVER: BENIGN TUMOR) “active; positive”; (Species: MOUSE, Strain/Sex: B6C3F1/MALE, Route: INTRAPERITONEAL, Dose: 0, 0.025, 0.08, 0.23 UMOL/G BW IN 5 µL/G BW OF 80% DMSO ONCE AT 12 D OF AGE (STUDY DURATION: 9 MO), Dose: 0, 0.025, 0.08, 0.23 UMOL/G BW IN 5 µL/G BW OF 80% DMSO ONCE AT 12 D OF AGE (STUDY DURATION: 9 MO), Tumor Site: Type of Lesion: LIVER: HEPATOMA) “active; positive”; (Species: MOUSE, Strain/Sex: B6C3F2 (BRACHYMORPHOIC)/MALE, Route: INTRAPERITONEAL, Dose: 0, 0.025, 0.08, 0.23 UMOL/G BW IN 5 µL/G BW OF 80% DMSO ONCE AT 12 D OF AGE (STUDY DURATION: 9 MO), Dose: 0, 0.025, 0.08, 0.23 UMOL/G BW IN 5 µL/G BW OF 80% DMSO ONCE AT 12 D OF AGE (STUDY DURATION: 9 MO), Tumor Site: Type of Lesion: LIVER: HEPATOMA) “active; positive”. Further, the carcinogen call (Species: RABBIT, Strain/Sex: NZW/MALE,FEMALE, Route: INTRAPERITONEAL, Dose: 32.3 MG/KG IN 3 ML/KG SALINE 3/WK FOR 40 WK, Tumor Site: Type of Lesion: PERITONEAL CAVITY: SARCOMA) was “active; positive”; the carcinogen call (Species: RAT, Strain/Sex: CRBL/FEMALE, Route: INTRAPERITONEAL, Dose: 4.O MG/100 G 3/WK FOR 2 WK THEN 3.0 MG/100 G 3/WK FOR 2 WK, Tumor Site: Type of Lesion: MAMMARY GLAND: BENIGN TUMOR, NEOPLASM) was “active; positive”; the carcinogen call (Species: RAT, Strain/Sex: F344/FEMALE, Route: INTRAPERITONEAL, Dose: 0.10 MMOL/RAT (TOTAL DOSE), Tumor Site: Type of Lesion: LIVER: CHOLANGIOMA, CARCINOMA) was “active; positive”; the carcinogen call (Species: RAT, Strain/Sex: F344/MALE, Route: ORAL, Dose: 160 UG/G IN DIET FOR 12 WK, Tumor Site: Type of Lesion: LIVER: HEPATOMA) is “active; positive”; the carcinogen call (Species: RAT, Strain/Sex: HOLTZMAN/FEMALE, Route: INTRAPERITONEAL, Dose: 2-AAF EQUIV OF 2.5 MG SUSPENDED IN SALINE-GUM ACACIA 3/WK FOR 3 WK THEN 3.5 MG FOR 2 WK THEN 3.0 MG FOR 9 WK, Tumor Site: Type of Lesion: MAMMARY GLAND: NEOPLASM, PERITONEAL CAVITY: SARCOMA) is “active; positive”; the carcinogen call (Species: RAT, Strain/Sex: HOLTZMAN/FEMALE, Route: INTRAPERITONEAL, Dose: 2-AAF EQUIV OF 4 MG IN 0.4 ML SALINE-GUM ACACIA 3/WK FOR 4 WK, Tumor Site: Type of Lesion: MAMMARY GLAND: NEOPLASM) was “active; positive”. Besides, the carcinogen call was “active; positive” (Species: RAT, Strain/Sex: HOLTZMAN/FEMALE, Route: ORAL, Dose: 0.032% IN GRAIN DIET FOR 4 MO, Tumor Site: Type of Lesion: MAMMARY GLAND: NEOPLASM, FORESTOMACH: PAPILLOMA, CARCINOMA, EAR (DUCT): NEOPLASM, INTESTINES (SMALL), Tumor Site: Type of Lesion: MAMMARY GLAND: NEOPLASM, FORESTOMACH: PAPILLOMA, CARCINOMA, EAR (DUCT): NEOPLASM, INTESTINES (SMALL)); “active; positive” (Species: RAT, Strain/Sex: HOLTZMAN/MALE, Route: INTRAPERITONEAL, Dose: 2-AAF EQUIV OF 2.5 MG SUSPENDED IN SALINE-GUM ACACIA 3/WK FOR 3 WK THEN 3.5 MG 3/WK FOR 3 WK THEN 3.0 MG 3/WK FOR 9 WK, Tumor Site: Type of Lesion: EAR (DUCT): NEOPLASM, PERITONEAL CAVITY: SARCOMA, INTESTINES (SMALL): NEOPLASM, Tumor Site: Type of Lesion: EAR (DUCT): NEOPLASM, PERITONEAL CAVITY: SARCOMA, INTESTINES (SMALL): NEOPLASM); “active; positive” (Species: RAT, Strain/Sex: HOLTZMAN/MALE, Route: ORAL, Dose: 0.032% IN GRAIN DIET FOR 3 MO, Tumor Site: Type of Lesion: LIVER: NEOPLASM, FORESTOMACH: PAPILLOMA, CARCINOMA); “active; positive” (Species: RAT, Strain/Sex: HOLTZMAN/MALE, Route: SUBCUTANEOUS, Dose: 3.2 MG IN 0.2 ML TRICAPRYLIN 2/WK FOR 4 WK, Tumor Site: Type of Lesion: INJECTION SITE: SARCOMA, EAR (DUCT): CARCINOMA); “active; positive” (Species: RAT, Strain/Sex: NIHBL/MALE,FEMALE, Route: ORAL, Dose: 80 UG/G IN DIET FOR 64 WK, Tumor Site: Type of Lesion: LIVER: HEPATOMA, CHOLANGIOMA); “active; positive” (Species: RAT, Strain/Sex: SPRAGUE-DAWLEY/FEMALE, Route: INTRAPERITONEAL, Dose: 0.10, 0.17 MMOL/RAT (TOTAL DOSE), Tumor Site: Type of Lesion: MAMMARY GLAND: ADENOCARCINOMA). Moreover, the carcinogen call runs as follows: (Species: RAT, Strain/Sex: STRAIN-CD/FEMALE, Route: INTRAPERITONEAL, Dose: 0, 67 UMOL/KG BW IN DMSO 3/WK FOR 4 WK (STUDY DURATION: 61 WK), Tumor Site: Type of Lesion: MAMMARY GLAND: ADENOCARCINOMA, HEMATOPOIETIC SYSTEM: LEUKEMIA, LYMPHOMA) “active; positive”; (Species: RAT, Strain/Sex: STRAIN-CD/FEMALE, Route: ORAL, Dose: 0.025% IN GRAIN DIET FOR 4 MO, Tumor Site: Type of Lesion: MAMMARY GLAND: CARCINOMA, LIVER: BENIGN TUMOR, NEOPLASM, EAR (DUCT): CARCINOMA, Tumor Site: Type of Lesion: MAMMARY GLAND: CARCINOMA, LIVER: BENIGN TUMOR, NEOPLASM, EAR (DUCT): CARCINOMA) “active; positive”.
With `CCCCCCCCS(=O)C(C)Cc1ccc2c(c1)OCO2` (centres undefined), the carcinogen call was “inactive; negative” (Species: MOUSE, Strain/Sex: B6C3F1/FEMALE, Route: ORAL, Dose: 0, 295, 754 PPM IN DIET, TWA, Dose: 0, 295, 754 PPM IN DIET, TWA); “active; positive” (Species: MOUSE, Strain/Sex: B6C3F1/MALE, Route: ORAL, Dose: 0, 350, 700 PPM IN DIET, Dose: 0, 350, 700 PPM IN DIET, Tumor Site: Type of Lesion: LIVER: HEPATOCELLULAR CARCINOMA); “inactive; negative” (Species: RAT, Strain/Sex: F344/FEMALE, Route: ORAL, Dose: 0, 3000, 6000 PPM IN DIET, Dose: 0, 3000, 6000 PPM IN DIET); “inactive; negative” (Species: RAT, Strain/Sex: F344/MALE, Route: ORAL, Dose: 0, 1500, 3000 PPM IN DIET, Dose: 0, 1500, 3000 PPM IN DIET).
As to `S=C(NC1CCCCC1)NC1CCCCC1`, the carcinogen call is, setting by setting: (Species: MOUSE, Strain/Sex: B6C3F1/FEMALE, Route: ORAL, Dose: 0, 25000, 50000 PPM IN DIET, Dose: 0, 25000, 50000 PPM IN DIET) “inactive; negative”; (Species: MOUSE, Strain/Sex: B6C3F1/MALE, Route: ORAL, Dose: 0, 25000, 50000 PPM IN DIET, Dose: 0, 25000, 50000 PPM IN DIET) “inactive; negative”; (Species: RAT, Strain/Sex: F344/FEMALE, Route: ORAL, Dose: 0, 25000, 50000 PPM IN DIET, Dose: 0, 25000, 50000 PPM IN DIET) “inactive; negative”; (Species: RAT, Strain/Sex: F344/MALE, Route: ORAL, Dose: 0, 25000, 50000 PPM IN DIET, Dose: 0, 25000, 50000 PPM IN DIET) “inactive; negative”.
On to `CCCCCCCCCCN(C)N=O`, for which the carcinogen call (Species: RAT, Strain/Sex: F344/MALE, Route: GAVAGE, Dose: 0, 108 MG/ML IN CORN OIL 2/WK FOR 30 WK, STUDY DURATION: 110 WK, Dose: 0, 108 MG/ML IN CORN OIL 2/WK FOR 30 WK, STUDY DURATION: 110 WK, Tumor Site: Type of Lesion: LUNG: ADENOCARCINOMA, BLADDER) is “active; positive”.
